pEC50: −log10 of the molar value. Like-named read-outs stand apart in the source and are kept apart here.

The experiment deals with E. coli PBP3 (Escherichia coli (strain K12), UniProt P0AD68). Put plainly: E. coli PBP3 Bocillin-FL fluorescence polarization competition binding assay. From the text:
To determine the ability of boronic acid-based test PBP inhibitors to bind Penicillin Binding Proteins (PBPs), Bocillin-FL (fluorescently-labeled penicillin V; ThermoFisher Scientific) was used in a fluorescence polarization (FP) competition binding assay to assess inhibitor binding to PBP2, PBP3 or PBP4 from Escherichia coli. PBPs were cloned and purified as described previously (King, D. T, et al., ACS Infectious Diseases 2015, 1, 175-184). To establish assay conditions for competition binding, an enzyme titration/saturation binding experiment was initially performed. Bocillin-FL was prepared at 0.2 μM in a buffer comprised of 50 mM Hepes (pH 8.0), 300 mM NaCl and 5% (v/v) glycerol. Saturation binding was performed by mixing 40 μl of PBP solutions ranging in concentrations from 0-12 μM with 40 μl of the 0.2 μM Bocillin-FL solution, in individual wells of a black 384-well microplate. FP was measured immediately upon mixing (Excitation, 490 nm; Emission, 520 nm; g-factor, 0.96), using a Cytation3 (BioTek) microplate reader and measured continuously for up to 120 minutes. […] Assays (80 μl final volume) were performed with PBPs at a final concentration of 1.5 μM, Bocillin-FL at 0.1 μM and beta-lactam concentrations that ranged from 0-1000 μM. […] Bocillin-FL was added and the FP immediately measured for 60 minutes (90 minutes for PBP2). The beta-lactam potency was reported as the concentration of beta-lactam required to reduce binding of Bocillin-FL by […] (EC50). […] Binding assays for boronic acid PBP inhibitors were performed in an identical fashion.
For orientation: Polarisation of emitted light reports the rotation of a fluorescent probe.

Setting [1] is: fluorescence polarization competition binding with Bocillin-FL, read-out: E. coli K12 PBP3 Potency.

E. coli PBP3, sequence (P0AD68 whole entry): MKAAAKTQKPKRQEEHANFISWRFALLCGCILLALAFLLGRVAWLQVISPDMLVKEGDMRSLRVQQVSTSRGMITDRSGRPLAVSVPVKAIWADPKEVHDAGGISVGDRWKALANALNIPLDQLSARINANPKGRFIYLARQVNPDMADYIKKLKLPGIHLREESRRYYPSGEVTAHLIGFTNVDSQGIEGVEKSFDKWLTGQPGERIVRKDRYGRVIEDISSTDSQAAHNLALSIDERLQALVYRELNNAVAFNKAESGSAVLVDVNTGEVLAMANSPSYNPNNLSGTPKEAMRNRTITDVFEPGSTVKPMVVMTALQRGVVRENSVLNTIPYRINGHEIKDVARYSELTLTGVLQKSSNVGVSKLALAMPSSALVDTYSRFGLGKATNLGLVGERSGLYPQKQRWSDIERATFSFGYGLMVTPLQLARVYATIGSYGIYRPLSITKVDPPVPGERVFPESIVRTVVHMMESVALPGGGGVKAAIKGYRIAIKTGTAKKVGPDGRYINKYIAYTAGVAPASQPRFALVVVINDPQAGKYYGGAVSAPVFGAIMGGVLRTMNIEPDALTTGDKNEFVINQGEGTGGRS

As for `CCN1CCN(C(=O)NC(C(=O)N[C@H]2Cc3cccc(C(=O)O)c3OB2O)[C@H](O)C(F)(F)F)C(=O)C1=O` (mixture of isomers) [Example 157, (3R)-3-((3S)-2-(4-ethyl-2,3-dioxopiperazine-1-carboxamido)-4,4,4-trifluoro-3-hydroxybutanamido)-2-hydroxy-3,4-dihydro-2H-benzo[e][1,2]oxaborinine-8-carboxylic acid], the pEC50 is < 3.30.

`CCN1CCN(C(=O)NC(CC(=O)N[C@H]2Cc3cccc(C(=O)O)c3OB2O)c2cc(O)c(O)c(Br)c2)C(=O)C1=O` (stereo partly drawn) [Example 42, (3R)-3-(3-(3-bromo-4,5-dihydroxyphenyl)-3-(4-ethyl-2,3-dioxopiperazine-1-carboxamido)propanamido)-2-hydroxy-3,4-dihydro-2H-benzo[e][1,2]oxaborinine-8-carboxylic acid] showed a pEC50 of 3.30 to 4.52. Consider `CCN1CCN(C(=O)NC(C(=O)N[C@H]2Cc3cccc(C(=O)O)c3OB2O)c2cccc(O)c2O)C(=O)C1=O` (stereo partly drawn) [Example 44, (3R)-3-(2-(2,3-dihydroxyphenyl)-2-(4-ethyl-2,3-dioxopiperazine-1-carboxamido)acetamido)-2-hydroxy-3,4-dihydro-2H-benzo[e][1,2]oxaborinine-8-carboxylic acid], for which the pEC50 under setting [1] is < 3.30. `CCN1CCN(C(=O)NC(C(=O)N[C@H]2Cc3cccc(C(=O)O)c3OB2O)c2ccc(O)c(OCCNC(=O)OCc3ccccc3)c2)C(=O)C1=O` (stereo partly drawn) [Example 50, (3R)-3-(2-(3-(2-(((benzyloxy)carbonyl)amino)ethoxy)-4-hydroxyphenyl)-2-(4-ethyl-2,3-dioxopiperazine-1-carboxamido)acetamido)-2-hydroxy-3,4-dihydro-2H-benzo[e][1,2]oxaborinine-8-carboxylic acid] showed a pEC50 of 3.30 to 4.52. Same read-out and setting: to `CCN1CCN(C(=O)NC(C(=O)N[C@H]2Cc3cccc(C(=O)O)c3OB2O)c2cccc(OC)n2)C(=O)C1=O` (stereo partly drawn) [Example 120, (3R)-3-(2-(4-ethyl-2,3-dioxopiperazine-1-carboxamido)-2-(6-methoxypyridin-2-yl)acetamido)-2-hydroxy-3,4-dihydro-2H-benzo[e][1,2]oxaborinine-8-carboxylic acid] belongs 3.30 to 4.52; to `CCN1CCN(C(=O)NC(C(=O)N[C@H]2Cc3cccc(C(=O)O)c3OB2O)C2CCCO2)C(=O)C1=O` (stereo partly drawn) [Example 122, (3R)-3-(2-(4-ethyl-2,3-dioxopiperazine-1-carboxamido)-2-(tetrahydrofuran-2-yl)acetamido)-2-hydroxy-3,4-dihydro-2H-benzo[e][1,2]oxaborinine-8-carboxylic acid], 3.30 to 4.52.

With `CCCN1CCN(C(=O)N[C@@H](C(=O)N[C@H]2Cc3ccc(F)c(C(=O)O)c3OB2O)[C@@H](C)O)C(=O)C1=O` [Example 133, (R)-3-((2R,3R)-2-(2,3-dioxo-4-propylpiperazine-1-carboxamido)-3-hydroxybutanamido)-7-fluoro-2-hydroxy-3,4-dihydro-2H-benzo[e][1,2]oxaborinine-8-carboxylic acid], under setting [1], the pEC50 was < 3.30.

On to `CCN1CCN(C(=O)N[C@H](C(=O)N[C@H]2Cc3ccc(F)c(C(=O)O)c3OB2O)c2ccsc2)C(=O)C1=O` [Example 139, (R)-3-((S)-2-(4-ethyl-2,3-dioxopiperazine-1-carboxamido)-2-(thiophen-3-yl)acetamido)-7-fluoro-2-hydroxy-3,4-dihydro-2H-benzo[e][1,2]oxaborinine-8-carboxylic acid], for which the pEC50 is 3.30 to 4.52. On the same count and under the same terms, with `CCN1CCN(C(=O)N[C@@H](C(=O)N[C@H]2Cc3cccc(C(=O)O)c3OB2O)[C@H](C)OC)C(=O)C1=O` [Example 146, (R)-3-((2R,3S)-2-(4-ethyl-2,3-dioxopiperazine-1-carboxamido)-3-methoxybutanamido)-2-hydroxy-3,4-dihydro-2H-benzo[e][1,2]oxaborinine-8-carboxylic acid] the figure was 3.30 to 4.52. As for `CCN1CCN(C(=O)N[C@H](C(=O)N[C@H]2Cc3cccc(C(=O)O)c3OB2O)[C@H](C)OC)C(=O)C1=O` [Example 147, (R)-3-((2S,3S)-2-(4-ethyl-2,3-dioxopiperazine-1-carboxamido)-3-methoxybutanamido)-2-hydroxy-3,4-dihydro-2H-benzo[e][1,2]oxaborinine-8-carboxylic acid], the pEC50 under setting [1] was < 3.30. `CCN1CCN(C(=O)N[C@@H](C(=O)N[C@H]2Cc3ccc(F)c(C(=O)O)c3OB2O)[C@H](O)C(F)(F)F)C(=O)C1=O` [Example 158, (R)-3-((2R,3S)-2-(4-ethyl-2,3-dioxopiperazine-1-carboxamido)-4,4,4-trifluoro-3-hydroxybutanamido)-7-fluoro-2-hydroxy-3,4-dihydro-2H-benzo[e][1,2]oxaborinine-8-carboxylic acid] showed a pEC50 of 3.30 to 4.52. In the case of `CCN1CCN(C(=O)N[C@H](C(=O)N[C@H]2Cc3ccc(F)c(C(=O)O)c3OB2O)[C@H](O)C(F)(F)F)C(=O)C1=O` [Example 159, (R)-3-((2S,3S)-2-(4-ethyl-2,3-dioxopiperazine-1-carboxamido)-4,4,4-trifluoro-3-hydroxybutanamido)-7-fluoro-2-hydroxy-3,4-dihydro-2H-benzo[e][1,2]oxaborinine-8-carboxylic acid], the pEC50 under setting [1] was < 3.30.

Turning to `CCN1CCN(C(=O)N[C@@H](C(=O)N[C@H]2Cc3ccc(F)c(C(=O)O)c3OB2O)[C@H](O)C(F)F)C(=O)C1=O` [Example 163, (R)-3-((2R,3S)-2-(4-ethyl-2,3-dioxopiperazine-1-carboxamido)-4,4-difluoro-3-hydroxybutanamido)-7-fluoro-2-hydroxy-3,4-dihydro-2H-benzo[e][1,2]oxaborinine-8-carboxylic acid], the pEC50 under setting [1] was > 4.52. Same read-out and setting: to `CCN1CCN(C(=O)N[C@H](C(=O)N[C@H]2Cc3ccc(F)c(C(=O)O)c3OB2O)[C@H](O)C(F)F)C(=O)C1=O` [Example 164, (R)-3-((2S,3S)-2-(4-ethyl-2,3-dioxopiperazine-1-carboxamido)-4,4-difluoro-3-hydroxybutanamido)-7-fluoro-2-hydroxy-3,4-dihydro-2H-benzo[e][1,2]oxaborinine-8-carboxylic acid] belongs < 3.30. `CCN1CCN(C(=O)NC(C(=O)N[C@H]2Cc3ccc(F)c(C(=O)O)c3OB2O)c2cscn2)C(=O)C1=O` (stereo partly drawn) [Example 165, (3R)-3-(2-(4-ethyl-2,3-dioxopiperazine-1-carboxamido)-2-(thiazol-4-yl)acetamido)-7-fluoro-2-hydroxy-3,4-dihydro-2H-benzo[e][1,2]oxaborinine-8-carboxylic acid] gave a pEC50 of 3.30 to 4.52. `CCN1CCN(C(=O)N[C@@H](C(=O)N[C@H]2Cc3cccc(C(=O)O)c3OB2O)[C@H](O)C(F)F)C(=O)C1=O` [Example 173, (R)-3-((2R,3S)-2-(4-ethyl-2,3-dioxopiperazine-1-carboxamido)-4,4-difluoro-3-hydroxybutanamido)-2-hydroxy-3,4-dihydro-2H-benzo[e][1,2]oxaborinine-8-carboxylic acid]: under setting [1], the pEC50 is < 3.30. Same read-out and setting: with `CCN1CCN(C(=O)N[C@H](C(=O)N[C@H]2Cc3cccc(C(=O)O)c3OB2O)[C@H](O)C(F)F)C(=O)C1=O` [Example 174, (R)-3-((2S,3S)-2-(4-ethyl-2,3-dioxopiperazine-1-carboxamido)-4,4-difluoro-3-hydroxybutanamido)-2-hydroxy-3,4-dihydro-2H-benzo[e][1,2]oxaborinine-8-carboxylic acid] the figure was < 3.30.

Regarding `CCN1CCN(C(=O)NC(C(=O)N[C@H]2Cc3cc(F)c(F)c(C(=O)O)c3OB2O)c2csc(N)n2)C(=O)C1=O` (stereo partly drawn) [Example 175, (3R)-3-(2-(2-aminothiazol-4-yl)-2-(4-ethyl-2,3-dioxopiperazine-1-carboxamido)acetamido)-6,7-difluoro-2-hydroxy-3,4-dihydro-2H-benzo[e][1,2]oxaborinine-8-carboxylic acid], the pEC50 is 3.30 to 4.52. The same measure, in the same setting: with `CCN1CCN(C(=O)NC(C(=O)N[C@H]2Cc3c(F)cc(F)c(C(=O)O)c3OB2O)c2csc(N)n2)C(=O)C1=O` (stereo partly drawn) [Example 184, (3R)-3-(2-(2-aminothiazol-4-yl)-2-(4-ethyl-2,3-dioxopiperazine-1-carboxamido)acetamido)-5,7-difluoro-2-hydroxy-3,4-dihydro-2H-benzo[e][1,2]oxaborinine-8-carboxylic acid] the figure was 3.30 to 4.52; with `CCN1CCN(C(=O)NC(C(=O)N[C@H]2Cc3cccc(C(=O)O)c3OB2O)c2csc(N)n2)C(O)C1=O` (stereo partly drawn) [Example 193, (3R)-3-(2-(2-aminothiazol-4-yl)-2-(4-ethyl-2-hydroxy-3-oxopiperazine-1-carboxamido)acetamido)-2-hydroxy-3,4-dihydro-2H-benzo[e][1,2]oxaborinine-8-carboxylic acid], 3.30 to 4.52.
